US12691143B2, “Method for treating cancer” (priority 2020, dated 2026)

Columns and labels:
[1] = tested on: muscle-invasive and metastatic urothelial cancer; conditions: cisplatin-based chemotherapy, first-line; cited from earlier work
[2] = tested on: cisplatin-resistant MDA-MB-468 cell line; experiment: In vitro drug sensitivity assay in cisplatin-resistant derivative; assay type: cell-based; conditions: cisplatin-resistant vs parental MDA-MB-468
Method: Cells were seeded in either 96-well (5,000 cells/well) or 24-well (20,000 cells/well) plates. The following day, irofulven and cisplatin stock solutions were serially diluted in media and added to cells. After 48 to 72 hours, media was removed and CellTiter-Glo® reagent (Promega; Madison, WI) was added. Plates were scanned using a luminescence microplate reader (BioTek). Survival at each drug concentration was plotted as a percentage of survival in drug-free media with error bars representing the standard deviation of at least three experiments.
Platinum-based chemotherapy is a first-line treatment for numerous solid malignancies including bladder cancer, but platinum resistance frequently occurs and represents a challenging clinical problem. Although a variety of platinum resistance mechanisms have been characterized, restoration or upregulation of DNA repair is a common mechanism of resistance, particularly in HR-deficient breast and ovarian tumors^33. Mechanisms of platinum resistance in NER deficient tumors have not been characterized, and we wished to determine if acquired resistance to cisplatin would confer cross-resistance to irofulven through restoration of NER. To test this, we derived cisplatin resistance in the NER-deficient MDA-MB-468 cell line by gradual exposure to escalating doses of cisplatin (Methods).

[3] = tested on: muscle-invasive bladder cancer; experiment: Pathologic response to neoadjuvant cisplatin-based chemotherapy, DFCI/MSKCC cohort; assay type: in vivo, human; conditions: for complete response rate: all cases
Excerpt: (§1) To validate the ability of the NERDetect classifier to discriminate between ERCC2 mutant and WT bladder tumors, we analyzed WES data from three additional independent bladder cancer cohorts^53,0,31. The DFCI/MSK (n=50) and FCCC (n=48) cohorts are comprised of muscle-invasive bladder cancer patients who received neoadjuvant cisplatin-based chemotherapy followed by radical cystectomy, while the BGI cohort (n=98) included patients with MIBC or non-muscle-invasive bladder cancer.
(§2) Patients in the DFCI/MSK and FCCC cohorts were treated with cisplatin-based chemotherapy followed by radical cystectomy, and cisplatin responders were defined as those that had no residual invasive disease on pathologic examination of the cystectomy specimen.
(§3) Patients in the DFCI/MSK and Philadelphia cohorts were treated with cisplatin-based chemotherapy followed by radical cystectomy, and cisplatin responders were defined as patients with no residual invasive disease on pathologic examination of the cystectomy specimen.

[4] = tested on: SC14 (SW1710 derivative with ERCC2 P463L mutation); experiment: In vitro drug sensitivity assay; assay type: cell-based; conditions: ERCC2-mutant SC14 line compared with SW1710
Excerpt: (§4) Bladder cancer cell lines were purchased from ATCC. The KE1 bladder cancer cell line is a derivative of KU19-19 in which an ERCC2 T484 mutation has been introduced by CRISPR/Cas9 gene editing as previously described (6). The MDA-MB-468 breast cancer cell line and its ERCC4-complemented derivative have been previously described (35). Small interfering RNAs (siRNAs) targeting specific NER genes as well as a non-targeting siRNA (siNTC) were purchased from Integrated DNA Technologies Inc. (Coralville, IA, USA; see Table 9 for sequences). Cells were seeded in 6-well plates and grown to 50% confluency. A transfection mixture containing siRNA diluted to a final concentration of 30 nM in Opti-MEM media containing Lipofectamine 3000 (Life Technologies; Carlsbad, CA) was then added to cells. After 48 hours, cells were trypsinized and re-aliquoted to separate wells and transfected with 15 nM siRNA for 24 hours immediately prior to viability assays performed as described below. […]
(§5) Cells were seeded in either 96-well (5,000 cells/well) or 24-well (20,000 cells/well) plates. […] Plates were scanned using a luminescence microplate reader (BioTek). […]

[5] = tested on: MDA-MB-468 breast cancer cell line (NER deficient, ERCC4 silenced); conditions: MDA-MB-468 with re-expression of WT ERCC4; previous work; cited from earlier work
[6] = tested on: KE1 bladder cancer cell line (ERCC2-mutated derivative of KU19-19, NER-deficient); experiment: In vitro drug sensitivity assay (CellTiter-Glo); assay type: cell-based; conditions: NER-deficient KE1, compared with isogenic KU19-19; 48 to 72 hours
Excerpt: as §4, §5

[7] = tested on: muscle-invasive bladder cancer; experiment: Pathologic response to neoadjuvant cisplatin-based chemotherapy, Philadelphia (FCCC) cohort; assay type: in vivo, human
Excerpt: as §1, §2, §3

Which “patients with an initial response” value [1] does the source give for `N.N.[Cl][Pt][Cl]` [cisplatin] here?
Its value is 60-70%.

And the “cisplatin IC50, cisplatin resistant cell line relative to parental” value [2]?
The value was ~ 3.5 fold.

And the cisplatin responders ([3]; WT ERCC2 patients, ERCC2mut score<0.70 (9 of 32))?
Its cisplatin responders is 28%.

And the cisplatin responders ([3]; WT ERCC2 patients, ERCC2mut score≥0.70 (seven of nine))?
The cisplatin responders was 78%.

And the cisplatin responders ([3]; WT ERCC2 patients, NERDetect score<0.75 (10 of 31))?
Its cisplatin responders is 32%.

What about the cisplatin responders ([3]; WT ERCC2 patients, NERDetect score≥0.75 (six of eight)) of the same molecule?
The cisplatin responders was 75%.

What about the cisplatin responders ([3]; all 41 WT ERCC2 cases (16)) of the same molecule?
The cisplatin responders was 39%.

What about the complete response rate ([3]; ERCC2mut score<0.70 (10 of 33)) of the same molecule?
Its complete response rate is 30%.

What about the complete response rate ([3]; ERCC2mut signature score≥0.70 (15 of 17)) of the same molecule?
The complete response rate was 88%.

And the complete response rate ([3]; NERDetect score ≥0.75 (14 of 16))?
The complete response rate was 87%.

And the complete response rate ([3]; NERDetect score<0.75 (11 of 34))?
The complete response rate was 32%.

And the drug sensitivity [4]?
The drug sensitivity was “significantly increased sensitivity”.

What about the “cisplatin sensitivity after re-expression of ERCC4” value [5] of the same molecule?
The value was “could be rescued”.

What about the “drug sensitivity (survival as percentage of drug-free media)” value [6] of the same molecule?
Its value is “increased sensitivity”.

And the complete response rate ([7]; ERCC2mut score<0.70 (14 of 42))?
The complete response rate was 33%.

And the complete response rate ([7]; ERCC2mut signature score≥0.70 (all six))?
Its complete response rate is 100%.

What about the complete response rate ([7]; NERDetect score<0.75 (14 of 41)) of the same molecule?
The complete response rate was 34%.

And the complete response rate ([7]; NERDetect score≥0.75 (six of seven))?
Its complete response rate is 86%.
